Reference: US10457637B2, “Benzenesulfonamide derivatives as inverse agonists of retinoid-related orphan receptor gamma (RORγ(T))” (GALDERMA RESEARCH & DEVELOPMENT, priority 2014, dated 2019)

Target: ROR gamma ligand-binding domain (hRORg) (Homo sapiens (Human), UniProt P51449)
Test: GAL4-RORγ transactivation (luciferase reporter, HG5LN HeLa line)
Type: cell-based
Settings: 18 hours incubation
Text: GAL4-RORγ Transactivation
The RORγ transactivation model was developed from the line HG5LN, which is a HeLa line that stably expresses a luciferase reporter gene controlled by a pentamer of the GAL4 recognition domain of yeast and of a β-globin promoter. The HG5LN line was stably transfected by the DNA-binding domain (DBD) of GAL4 fused to the ROR gamma ligand-binding domain (LBD). Molecules that inhibit the ROR gamma constitutive activity reduce the luciferase expression, thus leading to a reduction in the emitted luminescence.
The cells are seeded in 384-well plates (5000 cells in 45 μL/well of culture medium containing 10% fetal calf serum) and incubated for 4 hours at 37° C., 5% CO2. 5 μL of the test molecules (compounds described in the tables described above) are then added to each well and the plates are incubated for 18 hours at a temperature of 37° C. under 5% of CO2. 20 μL of luciferase substrate (Promega) are added to each well and the luminescence emitted is read by a microplate reader.
The luminescence units (“RLU”) are normalized by positive controls (“POS” containing a saturated concentration of benzenesulfonamide, N-(2,2,2-trifluoroethyl)-N-[4-[2,2,2-trifluoro-1-hydroxy-1-(trifluoromethyl)ethyl]phenyl]) and negative controls (“NEG” containing DMSO): % inhibition=((RLU−NEG)*100)/(POS−NEG). The IC50 values are calculated from a 4-parameter logistic model using the XLFit software (IDBS).

Chain of ROR gamma ligand-binding domain (hRORg) (P51449 269-508): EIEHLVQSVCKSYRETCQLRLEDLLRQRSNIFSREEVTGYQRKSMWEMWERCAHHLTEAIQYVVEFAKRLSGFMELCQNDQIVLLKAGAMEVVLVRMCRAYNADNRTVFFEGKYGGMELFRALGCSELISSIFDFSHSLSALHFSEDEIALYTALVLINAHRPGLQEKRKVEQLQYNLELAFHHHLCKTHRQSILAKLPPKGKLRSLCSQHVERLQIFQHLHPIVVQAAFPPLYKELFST

IC50 [nM] | Compound
> 1000 | CCc1ccc(N(CC(C)C)S(=O)(=O)c2ccc3c(c2)N(CC2CCOCC2)C(=O)C[S+]3[O-])cc1 (stereo not shown) [compound 4, 1,3-dioxo-4-(tetrahydropyran-4-ylmethyl)-1,2,3,4-tetrahydro-1λ^4-benzo[1,4]thiazine-6-sulfonic acid (4-ethylphenyl)isobutylamide]
> 1000 | CCc1ccc(N(CC(C)C)S(=O)(=O)c2ccc3c(c2)N(CC2CCOCC2)CCS3)cc1 [compound 6, 4-(tetrahydropyran-4-ylmethyl)-3,4-dihydro-2H-benzo[1,4]thiazine-6-sulfonic acid (4-ethylphenyl)isobutylamide]
> 1000 | CCc1ccc(N(CC(C)C)S(=O)(=O)c2ccc3c(c2)NCCS3)cc1 [compound 9, 3,4-dihydro-2H-benzo[1,4]thiazine-6-sulfonic acid (4-ethylphenyl)isobutylamide]
> 1000 | CCc1ccc(N(CC(C)C)S(=O)(=O)c2ccc3c(c2)NC(=O)CS3)cc1 [compound 10, 3-oxo-3,4-dihydro-2H-benzo[1,4]thiazine-6-sulfonic acid (4-ethylphenyl)isobutylamide]
> 1000 | CCc1ccc(N(CC(C)C)S(=O)(=O)c2ccc([S+]([O-])CC3CCOCC3)c(C(=O)OC)c2)cc1 (stereo not shown) [compound 16, methyl 5-[(4-ethylphenyl)isobutylsulfamoyl]-2-(tetrahydropyran-4-ylmethanesulfinyl)benzoate]
> 1000 | CCc1ccc(N(CC(C)C)S(=O)(=O)c2ccc(SCC3CCOCC3)c(C(=O)OC)c2)cc1 [compound 17, methyl 5-[(4-ethylphenyl)isobutylsulfamoyl]-2-(tetrahydropyran-4-ylmethylsulfanyl)benzoate]
100 to 1000 | CCc1ccc(N(CC(C)C)S(=O)(=O)c2ccc(OCC3CCOCC3)c([S+]([O-])CC)c2)cc1 (stereo not shown) [compound 22, ethanesulfinyl-N-(4-ethylphenyl)-N-isobutyl-4-(tetrahydropyran-4-ylmethoxy)benzenesulfonamide]
100 to 1000 | CCc1ccc(N(CC(C)C)S(=O)(=O)c2ccc(OCC3CCOCC3)c(SC)c2)cc1 [compound 25, N-(4-ethylphenyl)-N-isobutyl-3-methylsulfanyl-4-(tetrahydropyran-4-ylmethoxy)benzenesulfonamide]
> 1000 | CCc1ccc(N(CC(C)C)S(=O)(=O)c2ccc(S(=N)(=O)CC3CCOCC3)cc2)cc1 (stereo not shown) [compound 28, N-(4-ethylphenyl)-N-isobutyl-4-(tetrahydropyran-4-ylmethanesulfoximimyl)benzenesulfonamide]
< 100 | CCc1ccc(N(CC(C)C)S(=O)(=O)c2ccc(OCC3C4COCC43)c(S(C)(=N)=O)c2)cc1 (stereo not shown) [compound 31, 4-((3-oxabicyclo[3.1.0]hexan-6-yl)methoxy)-N-(4-ethylphenyl)-N-isobutyl-3-(S-methylsulfonimidoyl)benzenesulfonamide]
> 1000 | CCc1ccc(N(CC(C)C)S(=O)(=O)c2ccc(OCC3(F)COC3)c(S(C)(=N)=O)c2)cc1 (stereo not shown) [compound 32, N-(4-eethylphenyl)-4-((3-fluorooxetan-3-yl)methoxy)-N-isobutyl-3-(S-methylsulfonimidoyl)benzenesulfonamide]
> 1000 | CCc1ccc(N(CC(C)C)S(=O)(=O)c2ccc(OC3CCN(C(=O)OC(C)(C)C)CC3)c(S(C)(=N)=O)c2)cc1 (stereo not shown) [compound 33, tert-butyl 4-(4-(N-(4-ethylphenyl)-N-isobutylsulfamoyl)-2-(S-methylsulfonimidoyl)phenoxy)piperidine-1-carboxylate]
> 1000 | CCc1ccc(N(CC(C)C)S(=O)(=O)c2ccc(OCC3(C)COC3)c(S(C)(=N)=O)c2)cc1 (stereo not shown) [compound 34, N-(4-ethylphenyl)-N-isobutyl-4-((3-methyloxetan-3-yl)methoxy)-3-(S-methylsulfonimidoyl)benzenesulfonamide]
> 1000 | CCc1ccc(N(CC(C)C)S(=O)(=O)c2ccc(OCC3CCN(C(=O)OC(C)(C)C)CC3)c(S(C)(=N)=O)c2)cc1 (stereo not shown) [compound 36, tert-butyl 4-((4-(N-(4-ethylphenyl)-N-isobutylsulfamoyl)-2-(S-methylsulfonimidoyl)phenoxy)methyl)piperidine-1-carboxylate]
> 1000 | CCc1ccc(N(CC(C)C)S(=O)(=O)c2ccc(OCCc3ccno3)c(S(C)(=N)=O)c2)cc1 (stereo not shown) [compound 38, N-(4-ethylphenyl)-N-isobutyl-4-(2-(isoxazol-5-yl)ethoxy)-3-(S-methylsulfonimidoyl)benzenesulfonamide]
> 1000 | CCc1ccc(N(CC(C)C)S(=O)(=O)c2ccc(OCc3ccncc3)c(S(C)(=N)=O)c2)cc1 (stereo not shown) [compound 39, N-(4-ethylphenyl)-N-isobutyl-3-(S-methylsulfonimidoyl)-4-(pyridin-4-ylmethoxy)benzenesulfonamide]
> 1000 | CCc1ccc(N(CC(C)C)S(=O)(=O)c2ccc(OCC(O)CO)c(S(C)(=N)=O)c2)cc1 (stereo not shown) [compound 40, 4-(2,3-dihydroxypropoxy)-N-(4-ethylphenyl)-N-isobutyl-3-(S-methylsulfonimidoyl)benzenesulfonamide]
> 1000 | CCc1ccc(N(CC(C)C)S(=O)(=O)c2ccc(OCc3cc(C)nc(C)c3)c(S(C)(=N)=O)c2)cc1 (stereo not shown) [compound 43, 4-((2,6-dimethylpyridin-4-yl)methoxy)-N-(4-ethylphenyl)-N-isobutyl-3-(S-methylsulfonimidoyl)benzenesulfonamide]
> 1000 | CCc1ccc(N(CC(C)C)S(=O)(=O)c2ccc(OCc3ccc(F)cc3F)c(S(C)(=N)=O)c2)cc1 (stereo not shown) [compound 45, 4-((2,4-difluorobenzyl)oxy)-N-(4-ethylphenyl)-N-isobutyl-3-(S-methylsulfonimidoyl)benzenesulfonamide]
> 1000 | CCc1ccc(N(CC(C)C)S(=O)(=O)c2ccc(OCC3CCNCC3)c(S(C)(=N)=O)c2)cc1 (stereo not shown) [compound 49, N-(4-ethylphenyl)-N-isobutyl-3-(S-methylsulfonimidoyl)-4-(piperidin-4-ylmethoxy)benzenesulfonamide]
> 1000 | CCc1ccc(N(CC(C)C)S(=O)(=O)c2ccc(OCC3CCN(C(C)=O)CC3)c(S(C)(=N)=O)c2)cc1 (stereo not shown) [compound 50, 4-((1-acetylpiperidin-4-yl)methoxy)-N-(4-ethylphenyl)-N-isobutyl-3-(S-methylsulfonimidoyl)benzenesulfonamide]
> 1000 | CCc1ccc(N(CC(C)C)S(=O)(=O)c2ccc(OCC3CCN(S(C)(=O)=O)CC3)c(S(C)(=N)=O)c2)cc1 (stereo not shown) [compound 51]
100 to 1000 | CCc1ccc(N(CC(C)C)S(=O)(=O)c2ccc(NCC3COC3)c(S(C)(=N)=O)c2)cc1 (stereo not shown) [compound 54, N-(4-ethylphenyl)-N-isobutyl-3-(S-methylsulfonimidoyl)-4-((oxetan-3-ylmethyl)amino)benzenesulfonamide]
100 to 1000 | CCc1ccc(N(CC(C)C)S(=O)(=O)c2ccc(NCC3CCS(=O)(=O)C3)c(S(C)(=N)=O)c2)cc1 (stereo not shown) [compound 56, 4-(((1,1-dioxidotetrahydrothiophen-3-yl)methyl)amino)-N-(4-ethylphenyl)-N-isobutyl-3-(S-methylsulfonimidoyl)benzenesulfonamide]
> 1000 | CCc1ccc(N(CC(C)C)S(=O)(=O)c2ccc(NCC3CCS(=O)(=O)CC3)c(S(C)(=N)=O)c2)cc1 (stereo not shown) [compound 57, 4-(((1,1-dioxidotetrahydro-2H-thiopyran-4-yl)methyl)amino)-N-(4-ethylphenyl)-N-isobutyl-3-(S-methylsulfonimidoyl)benzenesulfonamide]
